Earlier results on one compound are cited in patent US8945626B2, “Preparation of pharmaceutical compositions” (priority 2006, dated 2015).

For `CC(=O)Nc1ccc(O)cc1` [Paracetamol, 4-Acetamidophenol], the “solubility in cold water” value is recorded as “very slightly soluble”.
